Results as given in a polymer gas permeability compilation.

| Compound | CH4 permeability [Barrer] | CO2 permeability [Barrer] | H2 permeability [Barrer] | N2 permeability [Barrer] | O2 permeability [Barrer] |
| --- | --- | --- | --- | --- | --- |
| */C(C)=C(/*)[Si](C)(C)C(C)C (repeat unit) | 360 | 2200 | 1650 | 170 | 460 |
| *C(=C(*)c1ccc(-c2ccc(C(C)(C)C)cc2)cc1)c1ccccc1 (repeat unit) | 190 | 1220 | 455 | 70.5 | 195 |
| *C(=C(*)c1ccc(-c2ccc([Si](C)(C)C)cc2)cc1)c1ccccc1 (repeat unit) | 450 | 2200 | 810 | 160 | 390 |
| *C(=C(*)c1ccc(C[Si](C)(C)C)cc1)c1ccccc1 (repeat unit) | 120 | 640 | 420 | 44 | 140 |
| *Nc1ccc(Oc2ccc(Oc3ccc(NC(=O)CN4C(=O)c5ccc(C(*)=O)cc5C4=O)cc3)cc2)cc1 (repeat unit) | 0.015 | 0.749 | – | 0.02 | 0.185 |
| *Nc1ccc(S(=O)(=O)c2ccc(NC(=O)c3cc(C(*)=O)cc(-c4ccccc4)c3)cc2)cc1 (repeat unit) | 0.11 | 3.2 | 7.6 | 0.13 | 0.75 |
| *OC(=O)Oc1c(Br)cc(C(C)(C)c2cc(Br)c(*)c(Br)c2)cc1Br (repeat unit) | 0.123 | 4.21 | 43 | 0.191 | 1.43 |
| *OC(=O)Oc1c(Cl)cc(C(C)(C)c2cc(Cl)c(*)c(Cl)c2)cc1Cl (repeat unit) | 0.223 | 6.68 | – | 0.36 | 2.29 |
| *OC(=O)c1cccc(C(=O)Oc2c(C)cc(C(C)(C)c3cc(C)c(O*)c(C)c3)cc2C)c1 (repeat unit) | 0.53 | 24 | – | 0.68 | 3.5 |
| *OC(=O)c1cccc(C(=O)Oc2ccc(C(C)(C)c3ccc(O*)c(C)c3)cc2C)c1 (repeat unit) | 0.044 | 2.5 | – | 0.076 | 0.46 |
| *OC1OC(COC(=O)NC(C)(C)C)C(*)C(OC(C)=O)C1OC(C)=O (repeat unit) | 1.4 | 28.5 | 31 | 0.98 | 4.3 |
| *OC1OC(COCC)C(*)C(OCC)C1OCC (repeat unit) | 9.2 | 91 | 68 | 4.3 | 15 |
| *OCC(*)CCl (repeat unit) | 0.657 | 8 | – | 0.24 | – |
| *OCC1OC(COCC)C(*)C(OCC)C1OCC (repeat unit) | 6.1 | 67.7 | 54.4 | 3.18 | 11.9 |
| *OCCCCCC(*)=O (repeat unit) | 1.57 | 16.8 | 5.06 | 0.59 | 1.32 |
| *O[Si](*)(C)CCC(F)(F)F (repeat unit) | 201 | 1390 | – | 88.3 | 200 |
| *O[Si](C)(C)CCCCCCCC[Si](*)(C)C (repeat unit) | 360 | 1200 | – | – | 237 |
| *O[Si](C)(C)CCCCCC[Si](*)(C)C (repeat unit) | 395 | 1310 | – | – | 265 |
| *Oc1c(Br)cc(C(C)(C)c2cc(Br)c(OC(=O)c3cc(C(*)=O)cc(C(C)(C)C)c3)c(Br)c2)cc1Br (repeat unit) | 0.853 | 21.5 | 54 | 0.89 | 5.63 |
| *Oc1c(Br)cc(C(c2cc(Br)c(OC(*)=O)c(Br)c2)(C(F)(F)F)C(F)(F)F)cc1Br (repeat unit) | 0.89 | 32 | 10.6 | 1.8 | 9.7 |
| *Oc1c(C)cc(*)c(C(=O)c2ccc(Br)cc2)c1C (repeat unit) | 1.13 | 18 | – | 2.13 | 8.45 |

| Compound | CH4 permeability [Barrer] | CO2 permeability [Barrer] | H2 permeability [Barrer] | N2 permeability [Barrer] | O2 permeability [Barrer] |
| --- | --- | --- | --- | --- | --- |
| *Oc1c(C)cc(*)c(C(=O)c2ccc(Cl)cc2)c1C (repeat unit) | 0.98 | 16.8 | – | 1.8 | 8.6 |
| *Oc1c(C)cc(*)c([N+](=O)[O-])c1C (repeat unit) | 2.4 | 40.4 | – | 2.4 | 11.5 |
| *Oc1c(C)cc(*)cc1C (repeat unit) | 4.1 | 66 | 68.7 | 3.5 | 14.6 |
| *Oc1c(C)cc(C(C)(C)c2cc(C)c(OC(=O)c3cc(C(*)=O)cc(C(C)(C)C)c3)c(Br)c2)cc1Br (repeat unit) | 1.06 | 22.7 | – | 1.06 | 6.27 |
| *Oc1c(C)cc(C(C)(C)c2cc(C)c(OC(=O)c3cccc(C(*)=O)c3)c(C)c2)cc1C (repeat unit) | 0.472 | 12 | 38.6 | 0.579 | 3.26 |
| *Oc1c(C)cc(C(C)(C)c2cc(C)c(Oc3ccc(C(=O)c4ccc(*)cc4)cc3)c(C)c2)cc1C (repeat unit) | 1.1 | 20 | 52 | 1.1 | 5.6 |
| *Oc1c(C)cc(C(C)(C)c2cccc(C(C)(C)c3cc(C)c(Oc4ccc(S(=O)(=O)c5ccc(*)cc5)cc4)c(C)c3)c2)cc1C (repeat unit) | 0.28 | 7 | 20 | 0.281 | 1.8 |
| *Oc1c(C)cc(C(c2cc(C)c(Oc3ccc(S(=O)(=O)c4ccc(*)cc4)cc3)c(C)c2)(C(F)(F)F)C(F)(F)F)cc1C (repeat unit) | 3 | 72 | – | 4 | 18 |
| *Oc1cc(C)c(C2(c3cc(C)c(Oc4ccc(S(=O)(=O)c5ccc(*)cc5)cc4)cc3C)OC(=O)c3ccccc32)cc1C (repeat unit) | 0.225 | 7.69 | 16.9 | 0.21 | 1.55 |
| *Oc1cc2c(cc1O*)C(=O)N(c1c(C)c(C)c(-n3c(=O)c4cc5oc6cc7c(cc6oc5cc4c3=O)C3(C(C)C)c4ccccc4C7(C(C)C)c4cc(*)c(*)cc43)c(C)c1C)C2=O (repeat unit) | 83.7 | – | 3430 | 87.4 | 542 |
| *Oc1cc2c(cc1O*)C(C)(C)CC1(CC(C)(C)c3cc4c(cc3O1)Oc1c(C#N)c(*)c(*)c(C#N)c1O4)O2 (repeat unit) | 93 | 1540 | 750 | 61.5 | 212 |
| *Oc1cc2c(cc1O*)C1(CC2(C)C)CC(C)(C)c2cc3oc4cc5c(=O)n(-c6c(C)c(C)c(N7C(=O)c8cc(*)c(*)cc8C7=O)c(C)c6C)c(=O)c5cc4oc3cc21 (repeat unit) | 27 | 520 | 360 | 23 | 85 |
| *Oc1cc2c(cc1O*)C1(CC2(C)CC)c2cc3c(cc2C(C)(CC)C1C)Oc1c(C#N)c(*)c(*)c(C#N)c1O3 (repeat unit) | 580 | 6100 | 2100 | 320 | 820 |
| *Oc1cc2c(cc1O*)C1(c3cc(C(C)(C)C)ccc3-2)c2cc(C(C)(C)C)ccc2-c2cc3c(cc21)Oc1c(C#N)c(*)c(*)c(C#N)c1O3 (repeat unit) | 1700 | 13200 | 5150 | 815 | 2310 |
| *Oc1cc2c(cc1O*)C1(c3cc(C)ccc3-2)c2cc(C)ccc2-c2cc3c(cc21)Oc1c(C#N)c(*)c(*)c(C#N)c1O3 (repeat unit) | 582 | 8500 | 4430 | 380 | 1510 |
| *Oc1cc2c(cc1O*)C1(c3ccccc3-2)c2ccccc2-c2cc3c(cc21)Oc1c(C#N)c(*)c(*)c(C#N)c1O3 (repeat unit) | 622 | 8890 | 4520 | 442 | 1620 |
| *Oc1cc2c(cc1O*)C1(c3ccccc3-c3cc4c(cc31)Oc1c(C#N)c(*)c(*)c(C#N)c1O4)c1cc(C)c(C)cc1-2 (repeat unit) | 563 | 7880 | 4420 | 341 | 1390 |
| *Oc1ccc(-c2c(-c3ccc(C#N)cc3)c(-c3ccc(C#N)cc3)c(-c3ccc4c(c3)Oc3c(C#N)c(*)c(*)c(C#N)c3O4)c(-c3ccc(C#N)cc3)c2-c2ccc(C#N)cc2)cc1O* (repeat unit) | 93 | 1300 | 734 | 52 | 205 |
| *Oc1ccc(-c2c(-c3ccc(C)cc3)c(-c3ccc(C)cc3)c(-c3ccc4c(c3)Oc3c(C#N)c(*)c(*)c(C#N)c3O4)c(-c3ccc(C)cc3)c2-c2ccc(C)cc2)cc1O* (repeat unit) | 132 | 1630 | 856 | 60 | 256 |
| *Oc1ccc(-c2ccc(Oc3c(F)c(F)c(COC(C4CCCC(C(OCc5c(F)c(F)c(*)c(F)c5F)(C(F)(F)F)C(F)(F)F)C4)(C(F)(F)F)C(F)(F)F)c(F)c3F)cc2)cc1 (repeat unit) | 0.34 | 8.2 | 20 | 0.61 | 2.5 |
